From article PMC4941353, “Interaction of antihistaminic drugs with human translationally controlled tumor protein (TCTP) as novel approach for differentiation therapy” (Oncotarget, 2016)

Experiments:
[1] = molecular target: T1, translationally controlled tumor protein (TCTP) (Homo sapiens, UniProt P13693); experiment: microscale thermophoresis with amine-labeled (BLUE-NHS) purified TCTP, buffer with […] chloroform; format: binding
T1 construct: gene TPT1; recombinant human TCTP (172 amino acids), codon-optimized, expressed in E. coli, intein tag cleaved on column
T1 sequence (P13693 1-172): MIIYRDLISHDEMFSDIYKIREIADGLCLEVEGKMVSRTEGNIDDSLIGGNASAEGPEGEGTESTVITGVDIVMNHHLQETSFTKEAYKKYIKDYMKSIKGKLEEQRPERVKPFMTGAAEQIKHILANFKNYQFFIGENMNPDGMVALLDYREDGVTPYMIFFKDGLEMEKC

[2] = molecular target: T1, translationally controlled tumor protein (TCTP); experiment: microscale thermophoresis with amine-labeled (BLUE-NHS) purified TCTP; format: binding

| Kd [1] | Kd [2] | Compound |
| --- | --- | --- |
| 433 ± 47.1 µM | – | CC(C)(C)c1ccc(CN2CCN(C(c3ccccc3)c3ccc(Cl)cc3)CC2)cc1 (centres unmarked) [buclizine] |
| – | 57.2 ± 6.49 µM | COc1ccc2c(c1)N(C[C@H](C)CN(C)C)c1ccccc1S2 [levomepromazine] |
